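96-well plates; 48 h exposure; 5 concentrations. Endpoints by linear interpolation between flanking doses. Not reached: highest tested concentration assigned. GI50 = concentration required for 50% inhibition of growth.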 Active and inactive are the calls of the source. No stated cut-off is given here; in the data, active = GI50 up to about 1.1 µM and inactive = higher.
What was measured:
Test in all cases: NCI-60 cell line screen, 48 h
A549 = tested on: A549
RPMI-8226 = tested on: RPMI-8226
HOP-62 = tested on: HOP-62
SK-MEL-2 = tested on: SK-MEL-2
K562 = tested on: K562
OVCAR-3 = tested on: OVCAR-3
RXF 631 = tested on: RXF 631
HCT-15 = tested on: HCT-15
IGROV-1 = tested on: IGROV-1
EKVX = tested on: EKVX
NCI-H522 = tested on: NCI-H522
DLD-1 = tested on: DLD-1
UACC-257 = tested on: UACC-257
NCI-H226 = tested on: NCI-H226
A498 = tested on: A498
COLO 205 = tested on: COLO 205
NCI-H23 = tested on: NCI-H23
SK-MEL-28 = tested on: SK-MEL-28
LXFL 529 = tested on: LXFL 529
DMS-114 = tested on: DMS-114
SNB-75 = tested on: SNB-75
LOX IMVI = tested on: LOX IMVI
OVCAR-4 = tested on: OVCAR-4
Malme-3M = tested on: Malme-3M
RXF 393 = tested on: RXF 393
MOLT-4 = tested on: MOLT-4
M19-MEL = tested on: M19-MEL
TK-10 = tested on: TK-10
SF-295 = tested on: SF-295
SF-539 = tested on: SF-539
ACHN = tested on: ACHN
SNB-19 = tested on: SNB-19
SW-620 = tested on: SW-620
SF-268 = tested on: SF-268
OVCAR-5 = tested on: OVCAR-5
M14 = tested on: M14
KM-20L2 = tested on: KM-20L2
SK-OV-3 = tested on: SK-OV-3
HT-29 = tested on: HT-29
HOP-92 = tested on: HOP-92
UACC-62 = tested on: UACC-62
SN12C = tested on: SN12C
786-0 = tested on: 786-0
CAKI-1 = tested on: CAKI-1
HCC 2998 = tested on: HCC 2998
CCRF-CEM = tested on: CCRF-CEM
HL-60 = tested on: HL-60
HCT-116 = tested on: HCT-116
OVCAR-8 = tested on: OVCAR-8
U-251 = tested on: U-251
SNB-78 = tested on: SNB-78
KM12 = tested on: KM12
XF498 = tested on: XF498
UO-31 = tested on: UO-31
NCI-H460 = tested on: NCI-H460
SR = tested on: SR
HOP-18 = tested on: HOP-18
MDA-MB-231 = tested on: MDA-MB-231
PC-3 = tested on: PC-3
DMS-273 = tested on: DMS-273
SK-MEL-5 = tested on: SK-MEL-5
NCI/ADR-RES = tested on: NCI/ADR-RES
T47D = tested on: T47D
DU-145 = tested on: DU-145
BT-549 = tested on: BT-549
MDA-N = tested on: MDA-N
MCF7 = tested on: MCF7
Hs-578T = tested on: Hs-578T
MDA-MB-435 = tested on: MDA-MB-435

CC(=O)C(CN(CC(C)C)CC(C)C)C(c1ccccc1)c1c(O)c2ccccc2oc1=O (centres undefined)
GI50 (A549): > 100 µM (inactive)
GI50 (RPMI-8226): > 100 µM (inactive)
GI50 (HOP-62): > 100 µM (inactive)
GI50 (SK-MEL-2): > 100 µM (inactive)
GI50 (K562): > 10 µM (inactive)
GI50 (OVCAR-3): > 100 µM (inactive)
GI50 (RXF 631): > 100 µM (inactive)
GI50 (HCT-15): > 100 µM
GI50 (IGROV-1): > 100 µM (inactive)
GI50 (EKVX): > 100 µM (inactive)
GI50 (NCI-H522): > 100 µM (inactive)
GI50 (DLD-1): > 100 µM (inactive)
GI50 (UACC-257): > 100 µM (inactive)
GI50 (NCI-H226): > 100 µM (inactive)
GI50 (A498): > 100 µM (inactive)
GI50 (COLO 205): > 100 µM (inactive)
GI50 (NCI-H23): > 100 µM (inactive)
GI50 (SK-MEL-28): > 100 µM (inactive)
GI50 (LXFL 529): > 100 µM (inactive)
GI50 (DMS-114): > 100 µM (inactive)
GI50 (SNB-75): > 100 µM (inactive)
GI50 (LOX IMVI): > 100 µM (inactive)
GI50 (OVCAR-4): > 100 µM (inactive)
GI50 (Malme-3M): > 100 µM (inactive)
GI50 (RXF 393): > 100 µM (inactive)
GI50 (MOLT-4): > 100 µM (inactive)
GI50 (M19-MEL): > 100 µM (inactive)
GI50 (TK-10): > 100 µM (inactive)
GI50 (SF-295): > 100 µM (inactive)
GI50 (SF-539): > 100 µM (inactive)
GI50 (ACHN): > 100 µM (inactive)
GI50 (SNB-19): > 100 µM (inactive)
GI50 (SW-620): > 100 µM (inactive)
GI50 (SF-268): > 100 µM (inactive)
GI50 (OVCAR-5): > 100 µM (inactive)
GI50 (M14): > 100 µM (inactive)
GI50 (KM-20L2): > 100 µM (inactive)
GI50 (SK-OV-3): > 100 µM (inactive)
GI50 (HT-29): > 100 µM (inactive)
GI50 (HOP-92): > 100 µM (inactive)
GI50 (UACC-62): > 100 µM (inactive)
GI50 (SN12C): > 100 µM (inactive)
GI50 (786-0): > 100 µM (inactive)
GI50 (CAKI-1): > 100 µM (inactive)
GI50 (HCC 2998): > 100 µM (inactive)
GI50 (CCRF-CEM): > 10 µM (inactive)
GI50 (HL-60): > 100 µM (inactive)
GI50 (HCT-116): > 100 µM (inactive)
GI50 (OVCAR-8): > 100 µM (inactive)

Cc1cc(C)nc(NS(=O)(=O)c2ccc(Nc3c4ccc(Cl)cc4nc4c(C(=O)Nc5ccc(S(N)(=O)=O)cc5)cccc34)cc2)n1
GI50 (RPMI-8226): 21.5 µM (inactive)
GI50 (HOP-62): 14.1 µM (inactive)
GI50 (K562): 25.1 µM (inactive)
GI50 (OVCAR-3): 15.5 µM (inactive)
GI50 (U-251): 14.4 µM (inactive)
GI50 (RXF 631): 18.2 µM (inactive)
GI50 (HCT-15): 17.9 µM
GI50 (EKVX): 21 µM (inactive)
GI50 (SNB-78): 49.9 µM (inactive)
GI50 (NCI-H522): 10.9 µM (inactive)
GI50 (DLD-1): 13.8 µM (inactive)
GI50 (UACC-257): 18.8 µM (inactive)
GI50 (KM12): 14.2 µM (inactive)
GI50 (A498): 14.8 µM (inactive)
GI50 (NCI-H23): 15.1 µM (inactive)
GI50 (XF498): 18.4 µM (inactive)
GI50 (SK-MEL-28): 33.8 µM (inactive)
GI50 (UO-31): 18.6 µM (inactive)
GI50 (LXFL 529): 23.8 µM (inactive)
GI50 (DMS-114): 22.8 µM (inactive)
GI50 (NCI-H460): 17.1 µM (inactive)
GI50 (SNB-75): 20.3 µM (inactive)
GI50 (LOX IMVI): 16 µM (inactive)
GI50 (OVCAR-4): 23.5 µM (inactive)
GI50 (Malme-3M): 33 µM (inactive)
GI50 (RXF 393): 13.3 µM (inactive)
GI50 (MOLT-4): 9.77 µM (inactive)
GI50 (M19-MEL): 25.4 µM (inactive)
GI50 (TK-10): 36.3 µM (inactive)
GI50 (SF-295): 18.2 µM (inactive)
GI50 (SF-539): 17.2 µM (inactive)
GI50 (ACHN): 32.1 µM (inactive)
GI50 (SNB-19): 24.6 µM (inactive)
GI50 (SF-268): 39.2 µM (inactive)
GI50 (OVCAR-5): 14.7 µM (inactive)
GI50 (M14): 17.4 µM (inactive)
GI50 (KM-20L2): 18.6 µM (inactive)
GI50 (SK-OV-3): 13.9 µM (inactive)
GI50 (HT-29): 24 µM (inactive)
GI50 (UACC-62): 25 µM (inactive)
GI50 (SN12C): 15 µM (inactive)
GI50 (786-0): 15.2 µM (inactive)
GI50 (HCC 2998): 16.6 µM (inactive)
GI50 (CCRF-CEM): 25.1 µM (inactive)
GI50 (HCT-116): 16.6 µM (inactive)
GI50 (SR): 16.6 µM (inactive)
GI50 (OVCAR-8): 16.9 µM (inactive)

Cc1c(N)nc(C(CC(N)=O)NCC(N)C(N)=O)nc1C(=O)NC(C(=O)NC(C)C(O)C(C)C(=O)NC(C(=O)NCCc1nc(-c2nc(C(=O)NCCCNC(C)c3ccccc3)cs2)cs1)C(C)O)C(OC1OC(CO)C(O)C(O)C1OC1OC(CO)C(O)C(OC(N)=O)C1O)c1c[nH]cn1 (centres undefined)
GI50 (A549): 0.847 µM (active)
GI50 (RPMI-8226): 3.21 µM (inactive)
GI50 (HOP-62): 0.0998 µM (active)
GI50 (SK-MEL-2): 16.8 µM (inactive)
GI50 (K562): 10.1 µM (inactive)
GI50 (HOP-18): 21.3 µM (inactive)
GI50 (OVCAR-3): 8.05 µM (inactive)
GI50 (U-251): 1.26 µM (inactive)
GI50 (HCT-15): 5.24 µM
GI50 (MDA-MB-231): > 50 µM (inactive)
GI50 (IGROV-1): 9.51 µM (inactive)
GI50 (PC-3): > 50 µM (inactive)
GI50 (EKVX): 47.1 µM (inactive)
GI50 (SNB-78): > 50 µM (inactive)
GI50 (DMS-273): 0.0752 µM (active)
GI50 (SK-MEL-5): 1.05 µM (active)
GI50 (NCI-H522): 2.65 µM (inactive)
GI50 (DLD-1): 32.8 µM (inactive)
GI50 (UACC-257): 22.3 µM (inactive)
GI50 (KM12): 16.6 µM (inactive)
GI50 (NCI-H226): 0.184 µM (active)
GI50 (A498): 1.69 µM (inactive)
GI50 (COLO 205): 11.3 µM (inactive)
GI50 (NCI-H23): 0.753 µM (active)
GI50 (XF498): 0.973 µM (active)
GI50 (SK-MEL-28): 31.5 µM (inactive)
GI50 (UO-31): 0.283 µM (active)
GI50 (LXFL 529): 23.9 µM (inactive)
GI50 (DMS-114): 0.59 µM (active)
GI50 (NCI-H460): 0.0482 µM (active)
GI50 (SNB-75): 0.296 µM (active)
GI50 (NCI/ADR-RES): 1.57 µM (inactive)
GI50 (LOX IMVI): 0.108 µM (active)
GI50 (OVCAR-4): 7.4 µM (inactive)
GI50 (Malme-3M): 1.42 µM (inactive)
GI50 (T47D): 5.26 µM (inactive)
GI50 (RXF 393): 0.156 µM (active)
GI50 (DU-145): 7.29 µM (inactive)
GI50 (MOLT-4): 1.83 µM (inactive)
GI50 (M19-MEL): 15 µM (inactive)
GI50 (TK-10): 40.5 µM (inactive)
GI50 (SF-295): 0.163 µM (active)
GI50 (SF-539): 0.0233 µM (active)
GI50 (BT-549): 18.2 µM (inactive)
GI50 (ACHN): 0.0208 µM (active)
GI50 (SNB-19): 8.39 µM (inactive)
GI50 (SW-620): 17.7 µM (inactive)
GI50 (SF-268): 2.9 µM (inactive)
GI50 (OVCAR-5): 5.96 µM (inactive)
GI50 (M14): 3.27 µM (inactive)
GI50 (KM-20L2): 40.4 µM (inactive)
GI50 (SK-OV-3): 10.2 µM (inactive)
GI50 (HT-29): 21.1 µM (inactive)
GI50 (MDA-N): > 50 µM (inactive)
GI50 (HOP-92): 0.19 µM (active)
GI50 (UACC-62): 0.706 µM (active)
GI50 (MCF7): 4.4 µM (inactive)
GI50 (SN12C): 2.07 µM (inactive)
GI50 (Hs-578T): 0.0482 µM (active)
GI50 (786-0): 0.419 µM (active)
GI50 (CAKI-1): 0.0258 µM (active)
GI50 (HCC 2998): 21.6 µM (inactive)
GI50 (CCRF-CEM): 4.33 µM (inactive)
GI50 (HL-60): 7.59 µM (inactive)
GI50 (HCT-116): 0.328 µM (active)
GI50 (SR): 2.3 µM (inactive)
GI50 (OVCAR-8): 5.11 µM (inactive)
GI50 (MDA-MB-435): > 50 µM (inactive)

From ChEMBL document CHEMBL1201862, “PubChem BioAssay data set” (2004)
